# Experimental data: patent publication US8258127B2, “Methods for treating latent tuberculosis” (Institut National de la Sante et de la Recherche Medicale …, priority 2008, dated 2012)
# Key:
# [1] = target: T1, LdtMt1 L,D-transpeptidase (Mycobacterium tuberculosis, UniProt O53638); test: Formation of enzyme-drug adducts between LdtMt1 and β-lactams (electrospray mass spectrometry); type: binding; conditions: LdtMt1 12.5 μM, β-lactam 125 μM, 1 h at 37° C.; for Average mass Observated of LdtMt1-β-lactam adduct: ND: not detected, native protein 24,584.4
# T1 sequence (O53638 32-251 limits assumed): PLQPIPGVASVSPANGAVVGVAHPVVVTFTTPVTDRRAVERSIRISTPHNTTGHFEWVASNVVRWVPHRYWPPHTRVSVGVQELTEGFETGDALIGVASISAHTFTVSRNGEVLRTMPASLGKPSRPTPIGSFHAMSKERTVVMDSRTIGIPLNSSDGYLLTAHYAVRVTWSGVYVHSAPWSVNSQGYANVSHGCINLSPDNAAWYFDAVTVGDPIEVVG
# Description: LdtMt1 (12.5 μM) was incubated without antibiotic (left panel) or with 125 μM imipenem (right panel). Proteins and adducts were detected by electrospray mass spectrometry. Peaks at m/z 848.75 and 879.03 correspond to the [M+29H]^29+ and [M+28H]^28+ ions of the native protein, respectively (deduced average mass of 24,584.4). Peaks at m/z 859.08 and 889.65 correspond to the [M+29H]^29+ and [M+28H]^28+ ions of the LdtMt1-imipenem adduct (deduced average mass of 24,883.5).
# The formation of enzyme-drug adducts was tested by incubating LdtMt1 (12.5 μM) with β-lactams (125 μM) for 1 h at 37° C. in buffer A. The reaction mixture was dialyzed against water for 30 min and the average mass of proteins and protein-β-lactam adducts was determined as described (Mainardi et al., 2007, Supra).
# To gain insight into the mechanism of LdtMt1 inhibition by β-lactams, binding of the drugs to the enzyme was tested by electrospray mass spectrometry. […] Adducts matching increments of the average mass of other carbapenems, meropenem and ertapenem, were also detected (Table 2 hereunder).
# [2] = target: T1, LdtMt1 L,D-transpeptidase; test: Inhibition of LdtMt1 L,D-transpeptidase activity by β-lactams (formation of mDap3→mDap3 cross-linked dimers, mass spectrometry); type: biochemical; conditions: for blocking of the L,D-transpeptidase enzyme (summary in words): summary statement of the description
# Description: The disaccharide-tetrapeptide containing amidated meso-diaminopimelic acid (GlcNAc-MurNAc-L-Ala^1-D-iGln^2-mesoDapNH2^3-D-Ala^4) was purified from C. jeikeium strain CIP103337 and the concentration w as determined by amino acid analysis after acid hydrolysis (Arbeloa et al., 2007, J. Biol. Chem., Vol. 279: 41546-41556; Auger et al., FEMS Microbiol. Lett., Vol. 219: 115-119). In vitro formation of muropeptide dimers was tested in 10 μL of 50 mM Tris-HCl (pH 7.5) containing 300 mM NaCl, 11 μM LdtMt1, and 280 μM disaccharide-tetrapeptide. The reaction mixture was incubated for 2 hours at 37° C., treated with ammonium hydroxide, and the resulting lactoyl-peptides were analyzed by nanoelectrospray tandem mass spectrometry using N2 as the collision gas (Arbeloa et al., 2007, Supra).
# LdtMt1 (12.5 μM) was pre-incubated for 20 min at 37° C. with ampicillin (Bristol-Myers), ceftriaxone (Roche Applied Science), and imipenem (Merck Sharpe and Dhome-Chibret) in 50 mM Tris-HCl (pH 7.5) containing 300 mM NaCl (buffer A). The L,D-transpeptidation reaction was started by the addition of the disaccharide-tetrapeptide (final concentration 280 μM) and allowed to proceed for 2 hours at 37° C. The reaction products were detected by mass spectrometry (Mainardi et al., 2007, J. Biol. Chem., Vol. 282: 30414-30422).
# To investigate inhibition of the L,D-transpeptidase activity of LdtMt1 by β-lactams, the formation of dimers containing mDap^3→mDap^3 cross-links was tested in the presence of various drug concentrations.
# [3] = LdtMt1 12.5 μM, pre-incubated 20 min at 37° C., disaccharide-tetrapeptide 280 μM, 2 hours
Structure (SMILES),formation of adduct with LdtMt1 (in words) [1],Average mass Observated of LdtMt1-β-lactam adduct [1],"blocking of the L,D-transpeptidase enzyme (summary in words) [2]","drug concentration required for full inhibition of enzyme activity [2, 3] [µM]","highest tested concentration without inhibition of LdtMt1 [2, 3] [mM]"
"C[C@@H](O)[C@H]1C(=O)N2C(C(=O)O)=C(S[C@@H]3CN[C@H](C(=O)N(C)C)C3)[C@H](C)[C@H]12 [Meropenem, meropenem]",detected,"24,967.8","block the said L,D-transpeptidase enzyme",–,–
"C[C@@H](O)[C@H]1C(=O)N2C(C(=O)O)=C(S[C@@H]3CN[C@H](C(=O)Nc4cccc(C(=O)O)c4)C3)[C@H](C)[C@H]12 [Ertapenem, ertapenem]",detected,"25,059.9","block the said L,D-transpeptidase enzyme",–,–
"CO/N=C(\C(=O)N[C@@H]1C(=O)N2C(C(=O)O)=C(CSc3nc(=O)c(=O)[nH]n3C)CS[C@H]12)c1csc(N)n1 [Ceftriaxone, ceftriaxone]",No adduct was detected,–,–,360,–
"CC1(C)S[C@@H]2[C@H](NC(=O)[C@H](N)c3ccccc3)C(=O)N2[C@H]1C(=O)O [Ampicillin, ampicillin]",No adduct was detected,–,inactive,–,> 5.7
